Laboratory results taken from ChEMBL document CHEMBL3808319, “Development of novel cyclic peptides as pro-apoptotic agents” (Eur J Med Chem, 2016).
Active and inactive are the calls of the source. No cut-off for these calls is given here. *1 amine or outer side, *2 acyl side, *3 side chain or, on linkers, in order; H or OH if unused. Where a SMILES comes first, the peptide text is derived from it. [ ]: non-standard residue; d: D form. The star is where a group is joined. NH(CH2)2O(CH2)2NH2 = NCCOCCN*; ΔPro = O=C(O)[C@@H]1C=CCN1; CO = O=C([*:1])[*:2]; Bn = c1ccc(C*)cc1; GABA = NCCCC(=O)O; βAla = NCCC(=O)O

How the values were obtained:
[1] = target: T1, Tubulin (Sus scrofa) (UniProt P02554+P02550); assay: Induction of pig tubulin polymerization at 10 uM after 60 mins by spectroscopic analysis; format: protein assay
[2] = test system: HL-60; assay: Induction of apoptosis in human HL60 cells assessed as accumulation at subG0/G1 phase at 50 uM after 24 hrs by Annexin V and propidium iodide staining based flow cytometric analysis (reference value: 3.14 +/- 0.9 %); format: functional
[3] = test system: HL-60; assay: Induction of apoptosis in human HL60 cells assessed as reduction in accumulation at G0/G1 phase after 24 hrs by propidium iodide staining based flow cytometric analysis; format: functional, cell-based
[4] = test system: HL-60; assay: Induction of apoptosis in human HL60 cells assessed as accumulation at subG0/G1 phase after 24 hrs by Annexin V and propidium iodide staining based flow cytometric analysis; format: functional, cell-based
[5] = test system: HL-60; assay: Induction of apoptosis in human HL60 cells assessed as loss of mitochondrial inner transmembrane potential at 50 uM after 24 hrs by TMRM dye based flow cytometric analysis; format: functional, cell-based
[6] = test system: HL-60; assay: Induction of apoptosis in human HL60 cells assessed as reduction in accumulation at G2/M phase after 24 hrs by propidium iodide staining based flow cytometric analysis; format: functional, cell-based
[7] = test system: HL-60; assay: Induction of apoptosis in human HL60 cells assessed as accumulation at subG0/G1 phase at 100 uM after 24 hrs by Annexin V and propidium iodide staining based flow cytometric analysis (reference value: 3.14 +/- 0.9 %); format: functional
[8] = target: T1, Tubulin (Sus scrofa); assay: Induction of pig tubulin polymerization at 100 uM after 60 mins by spectroscopic analysis; format: protein assay
[9] = test system: MCF7; assay: Induction of apoptosis in human MCF7 cells assessed as accumulation at subG0/G1 phase at 50 uM after 48 hrs by Annexin V and propidium iodide staining based flow cytometric analysis (reference value: 8.5 +/- 2.4 %); format: functional
[10] = test system: HL-60; assay: Induction of apoptosis in human HL60 cells assessed as accumulation at subG0/G1 phase at 25 uM after 24 hrs by Annexin V and propidium iodide staining based flow cytometric analysis (reference value: 5 %); format: functional
[11] = Induction of apoptosis in human EBV-B cells assessed as accumulation at subG0/G1 phase at 25 uM after 24 hrs by Annexin V and propidium iodide staining based flow cytometric analysis (reference value: 1.6 %); format: functional
[12] = test system: B16-F10; assay: Induction of apoptosis in mouse B16F10 cells assessed as accumulation at subG0/G1 phase at 50 uM after 24 hrs by Annexin V and propidium iodide staining based flow cytometric analysis (reference value: 3.7 +/- 3 %); format: functional
[13] = test system: A-375; assay: Induction of apoptosis in human A375 cells assessed as accumulation at subG0/G1 phase at 50 uM after 72 hrs by Annexin V and propidium iodide staining based flow cytometric analysis (reference value: 7 +/- 1 %); format: functional
[14] = test system: B16-F1; assay: Induction of apoptosis in mouse B16-F1 cells assessed as accumulation at subG0/G1 phase at 50 uM after 24 hrs Annexin V and propidium iodide staining based flow cytometric analysis (reference value: 1.9 +/- 1.6 %); format: functional
[15] = test system: RBL-2H3; assay: Induction of tubulin polymerization in rat RBL2H3 cells assessed as induction of alteration of microtubule network at 50 uM preincubated for 16 hrs measured after 24 hrs by confocal laser scanning microscopic analysis; format: cell-based
[16] = test system: Jurkat; assay: Induction of apoptosis in human Jurkat cells assessed as accumulation at subG0/G1 phase at 25 uM after 24 hrs by Annexin V and propidium iodide staining based flow cytometric analysis (reference value: 3.9 %); format: functional
[17] = Induction of apoptosis in human 501mel cells assessed as accumulation at subG0/G1 phase at 50 uM after 72 hrs by Annexin V and propidium iodide staining based flow cytometric analysis (reference value: 9 +/- 1.8%); format: functional
[18] = species on record: Homo sapiens; assay: Induction of apoptosis in human 501mel cells assessed as accumulation at subG0/G1 phase at 100 uM after 72 hrs by Annexin V and propidium iodide staining based flow cytometric analysis; format: functional, cell-based
[19] = test system: A-375; assay: Induction of apoptosis in human A375 cells assessed as accumulation at subG0/G1 phase at 50 uM after 24 hrs by Annexin V and propidium iodide staining based flow cytometric analysis (reference value: 7 +/- 1 %); format: functional, cell-based
[20] = species on record: Homo sapiens; assay: Induction of apoptosis in human 501mel cells assessed as accumulation at subG0/G1 phase at 50 uM after 24 hrs by Annexin V and propidium iodide staining based flow cytometric analysis (reference value: 9 +/- 1.8 %); format: functional, cell-based
[21] = test system: A-375; assay: Induction of apoptosis in human A375 cells assessed as accumulation at subG0/G1 phase at 100 uM after 72 hrs by Annexin V and propidium iodide staining based flow cytometric analysis; format: functional, cell-based

T1 sequence (P02550 whole entry, looked up): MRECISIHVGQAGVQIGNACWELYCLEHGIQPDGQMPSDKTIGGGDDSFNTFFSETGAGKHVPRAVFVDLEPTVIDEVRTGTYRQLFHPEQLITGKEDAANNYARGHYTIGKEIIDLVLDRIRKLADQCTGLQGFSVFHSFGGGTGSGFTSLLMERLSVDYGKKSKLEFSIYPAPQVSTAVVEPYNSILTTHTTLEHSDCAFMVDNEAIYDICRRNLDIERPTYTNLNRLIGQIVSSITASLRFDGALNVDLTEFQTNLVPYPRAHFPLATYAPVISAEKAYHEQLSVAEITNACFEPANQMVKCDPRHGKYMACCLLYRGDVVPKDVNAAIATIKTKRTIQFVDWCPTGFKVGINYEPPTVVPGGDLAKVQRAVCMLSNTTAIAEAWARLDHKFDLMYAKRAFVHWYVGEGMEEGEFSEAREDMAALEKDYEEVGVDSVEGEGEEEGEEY
T1 sequence (P02554 whole entry, looked up): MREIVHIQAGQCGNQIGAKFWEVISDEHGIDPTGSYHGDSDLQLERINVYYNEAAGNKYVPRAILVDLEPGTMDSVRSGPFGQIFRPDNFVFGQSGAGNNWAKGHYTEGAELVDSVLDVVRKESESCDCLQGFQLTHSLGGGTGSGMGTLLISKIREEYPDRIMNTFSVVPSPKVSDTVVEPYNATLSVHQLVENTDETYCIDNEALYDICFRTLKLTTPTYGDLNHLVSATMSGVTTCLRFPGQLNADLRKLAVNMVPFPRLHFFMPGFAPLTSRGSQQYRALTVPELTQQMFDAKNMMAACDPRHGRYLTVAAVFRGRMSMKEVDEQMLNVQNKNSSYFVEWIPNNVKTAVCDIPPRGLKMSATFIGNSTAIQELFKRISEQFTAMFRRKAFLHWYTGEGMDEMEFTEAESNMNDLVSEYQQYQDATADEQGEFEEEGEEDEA

Compound: CC(=O)O[C@H]1C(=O)[C@@]2(C)[C@H]([C@H](OC(=O)c3ccccc3)[C@]3(O)C[C@H](OC(=O)[C@H](O)[C@@H](NC(=O)c4ccccc4)c4ccccc4)C(C)=C1C3(C)C)[C@]1(OC(C)=O)CO[C@@H]1C[C@@H]2O
- Activity [1]: Active

Compound: CC[C@H](C)[C@H](NC(=O)[C@@H]1CCCN1C(=O)[C@@H]1CCCN1C(=O)CCCN)C(=O)N[C@H](C(=O)N1CCC[C@H]1C(=O)N[C@@H](Cc1ccc(O)cc1)C(=O)N[C@@H](Cc1ccccc1)C(=O)O)C(C)C (H-[GABA]PPIVPYF-OH)
- Activity [2]: inactive

Compound: CC[C@H](C)[C@H](NC(=O)[C@@H]1CCCN1C(=O)[C@@H]1CCCN1C(=O)CCCN)C(=O)N[C@H](C(=O)N1CC=C[C@H]1C(=O)N[C@@H](Cc1ccc(O)cc1)C(=O)N[C@@H](Cc1ccccc1)C(=O)O)C(C)C (H-[GABA]PPIV[ΔPro]YF-OH)
- Activity [2]: inactive

Compound: CC[C@H](C)[C@H](NC(=O)[C@@H]1CCCN1C(=O)[C@@H]1CCCN1C(C)=O)C(=O)N[C@H](C(=O)N1CCC[C@H]1C(=O)N[C@@H](Cc1ccc(O)cc1)C(=O)N[C@@H](Cc1ccccc1)C(=O)N(C)C)C(C)C (Ac-PPIVPYF-NMe2)
- Activity [2]: inactive

Compound: CC[C@H](C)[C@@H]1NC(=O)NCCOCCCNC(=O)[C@H](Cc2ccccc2)NC(=O)[C@H](Cc2ccc(OCc3ccccc3)cc2)NC(=O)[C@@H]2C=CCN2C(=O)[C@H](C(C)C)NC1=O
- Activity [3]: Dose-dependent effect
- Activity [2]: 77%
- Activity [4]: Dose-dependent effect
- Activity [5]: Active
- Activity [6]: Dose-dependent effect

Compound: Ac-LVPPPPIVPYF-OH
- Activity [2]: inactive
- Activity [7]: 7.2%

Compound: CC[C@H](C)[C@@H]1NC(=O)[C@@H]2CCCN2C(=O)[C@@H]2CCCN2C(=O)CCNC(=O)[C@H](Cc2ccccc2)NC(=O)[C@H](Cc2ccc(O)cc2)NC(=O)[C@@H]2CCCN2C(=O)[C@H](C(C)C)NC1=O (cyclo(F[βAla]PPIVPY))
- Activity [3]: Dose-dependent effect
- Activity [2]: 33.1%
- Activity [4]: Dose-dependent effect
- Activity [8]: Active
- Activity [5]: Active
- Activity [6]: Dose-dependent effect
- Activity [9]: 18.9%

Compound: CC[C@H](C)[C@@H]1NC(=O)[C@@H]2CCCN2C(=O)[C@@H]2CCCN2C(=O)CCCNC(=O)[C@H](Cc2ccccc2)NC(=O)[C@H](Cc2ccc(O)cc2)NC(=O)[C@@H]2CCCN2C(=O)[C@H](C(C)C)NC1=O (cyclo(F[GABA]PPIVPY))
- Activity [10]: 17%
- Activity [3]: Dose-dependent effect
- Activity [2]: 56.6%
- Activity [11]: 11.4%
- Activity [4]: Dose-dependent effect
- Activity [12]: 13.6%
- Activity [13]: 48%
- Activity [14]: 13.9%
- Activity [5]: Active
- Activity [15]: Active
- Activity [16]: 12%
- Activity [6]: Dose-dependent effect
- Activity [9]: 11.8%
- Activity [17]: 17%

Compound: CC[C@H](C)[C@@H]1NC(=O)[C@@H]2CCCN2C(=O)[C@@H]2CCCN2C(=O)CNC(=O)[C@H](Cc2ccccc2)NC(=O)[C@H](Cc2ccc(O)cc2)NC(=O)[C@@H]2CCCN2C(=O)[C@H](C(C)C)NC1=O (cyclo(FGPPIVPY))
- Activity [3]: Dose-dependent effect
- Activity [2]: 42%
- Activity [4]: Dose-dependent effect
- Activity [5]: Active
- Activity [15]: Active
- Activity [6]: Dose-dependent effect
- Activity [9]: 17.3%

Compound: CC[C@H](C)[C@@H]1NC(=O)NCCOCCNC(=O)[C@H](Cc2ccccc2)NC(=O)[C@H](Cc2ccc(O)cc2)NC(=O)[C@@H]2C=CCN2C(=O)[C@H](C(C)C)NC1=O
- Activity [2]: 5%

Compound: CC[C@H](C)[C@H](NC(=O)NCCOCCN)C(=O)N[C@H](C(=O)N1CC=C[C@H]1C(=O)N[C@@H](Cc1ccc(OCc2ccccc2)cc1)C(=O)N[C@@H](Cc1ccccc1)C(=O)O)C(C)C ({NH(CH2)2O(CH2)2NH2-CO}-IV[ΔPro]Y(Bn)F-OH)
- Activity [2]: inactive

Compound: Ac-VPPPPI-NH2
- Activity [2]: inactive

Compound: CC[C@H](C)[C@H](NC(=O)[C@@H]1CCCN1C(=O)[C@@H]1CCCN1C(=O)CCN)C(=O)N[C@H](C(=O)NCC(=O)N[C@@H](Cc1ccc(O)cc1)C(=O)N[C@@H](Cc1ccccc1)C(=O)O)C(C)C (H-[βAla]PPIVGYF-OH)
- Activity [2]: inactive

Compound: Ac-LVPPPPIVPYF-NH2
- Activity [10]: 7.7%
- Activity [2]: inactive
- Activity [11]: 2.3%
- Activity [18]: inactive
- Activity [12]: inactive
- Activity [19]: inactive
- Activity [20]: inactive
- Activity [14]: inactive
- Activity [16]: 4%
- Activity [7]: 6.5%
- Activity [9]: inactive
- Activity [21]: inactive

Compound: Ac-PPIVPYF-OH
- Activity [2]: inactive

Compound: H-GPPIVPYF-OH
- Activity [2]: inactive

Compound: CC[C@H](C)[C@@H]1NC(=O)[C@@H]2CCCN2C(=O)[C@@H]2CCCN2C(=O)CCCNC(=O)[C@H](Cc2ccccc2)NC(=O)[C@H](Cc2ccc(O)cc2)NC(=O)CNC(=O)[C@H](C(C)C)NC1=O (cyclo(F[GABA]PPIVGY))
- Activity [2]: 11%

Compound: CC[C@H](C)[C@@H]1NC(=O)[C@@H]2CCCN2C(=O)[C@@H]2CCCN2C(=O)CCCNC(=O)[C@H](Cc2ccccc2)NC(=O)[C@H](Cc2ccc(O)cc2)NC(=O)[C@@H]2C=CCN2C(=O)[C@H](C(C)C)NC1=O (cyclo(F[GABA]PPIV[ΔPro]Y))
- Activity [2]: 7%

Compound: CC[C@H](C)[C@H](NC(=O)[C@@H]1CCCN1C(=O)[C@@H]1CCCN1C(=O)CCCN)C(=O)N[C@H](C(=O)NCC(=O)N[C@@H](Cc1ccc(O)cc1)C(=O)N[C@@H](Cc1ccccc1)C(=O)O)C(C)C (H-[GABA]PPIVGYF-OH)
- Activity [2]: inactive
